From US20100267561A1, “HERBICIDAL PYRIDAZINONE DERIVATIVES” (priority 2007, published 2010)
Like-named read-outs stand apart in the source and are kept apart here.

How the values were obtained:
Assay type in all cases: in vivo
[1] = tested on: bermudagrass (Cynodon dactylon); experiment: Test B pre-/postemergence plant response; details: Preemergence, 8 g ai/ha; scale 0 to 100 (0 no effect, 100 complete control)
In short: (§1)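 Preemergence and postemergence (plants 2-18 cm, 1- to 4-leaf stage) applications used test chemicals in a non-phytotoxic solvent with surfactant. Plants were held in a greenhouse 13 to 15 days, then rated visually against controls on a 0-100 scale (0 no effect, 100 complete control).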

corn (Zea mays) = experiment: Test B pre-/postemergence plant response; details: for Corn plant response rating: 8 g ai/ha; for Corn plant response rating (crop injury, 0 = no effect, 100 = complete kill) at 16 g/ha / Corn plant response rating (crop injury, 0 = no effect, 100 = complete kill) at 31 g/ha / Corn plant response rating (crop injury, 0 = no effect, 100 = complete kill) at 62 g/ha: Zea mays; for Corn plant response rating (crop injury, 0 = no effect, 100 = complete kill) at 16 g/ha: 16 g ai/ha; for Corn plant response rating (crop injury, 0 = no effect, 100 = complete kill) at 31 g/ha: 31 g ai/ha; for Corn plant response rating (crop injury, 0 = no effect, 100 = complete kill) at 62 g/ha: 62 g ai/ha
In short: as §1

[2] = tested on: morningglory (Ipomoea coccinea); experiment: Test B pre-/postemergence plant response; details: for Morningglory plant response rating: 8 g ai/ha; for pest or weed control at 16 g/ha / pest or weed control at 31 g/ha / pest or weed control at 62 g/ha: Ipomoea, read-out: Plant response rating, Morningglory; for pest or weed control at 16 g/ha: 16 g ai/ha; for pest or weed control at 31 g/ha: 31 g ai/ha; for pest or weed control at 62 g/ha: 62 g ai/ha
In short: as §1

[3] = tested on: eastern black (E.B.) nightshade (Solanum ptycanthum); experiment: Test B pre-/postemergence plant response; details: Preemergence
In short: as §1

[4] = tested on: blackgrass (Alopecurus myosuroides); experiment: Test B pre-/postemergence plant response; details: for pest or weed control at 31 g/ha: 31 g ai/ha; for pest or weed control at 62 g/ha: 62 g ai/ha
In short: as §1

[5] = tested on: barnyardgrass (Echinochloa crus-galli); experiment: Test B flooded paddy test plant response; details: Echinochloa crus-galli, read-out: Plant response rating, Barnyardgrass
In short: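 Step one: raise plants to 2 leaves. Step two: flood pots 3 cm over the soil and apply compound into the water, keeping this depth. Step three: after 13–15 greenhouse days, score visually versus controls, 0–100, where 100 means complete control.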

[6] = tested on: chickweed (Stellaria media); experiment: Test B postemergence plant response; details: for Plant response rating, Chickweed: Postemergence
In short: (§2)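 Compounds applied after emergence to 2–18 cm plants; response read visually 13–15 days later on 0 (none) to 100 (complete control); a dash marks no result.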

[7] = tested on: winter barley (Hordeum vulgare); experiment: Test B postemergence plant response; details: for Plant response rating, Barley: Postemergence, scale 0 to 100, 0 no effect, 100 complete control
In short: as §2

[8] = tested on: canarygrass (Phalaris minor); experiment: Test B postemergence plant response; details: for Plant response rating, Canarygrass: Postemergence
In short: as §2

[9] = tested on: windgrass (Apera spica-venti); experiment: Test B postemergence plant response; details: for Plant response rating, Windgrass: Postemergence
In short: as §2

[10] = post-emergence, Postemergence, scale 0 to 100
[11] = post-emergence, Postemergence, scale 0 to 100, 0 no effect, 100 complete control
[12] = pre-emergence, Preemergence, scale 0 to 100 (0 no effect, 100 complete control)
[13] = pre-emergence, Preemergence, 0 to 100 scale, 0 no effect, 100 complete control
[14] = pre-emergence, Preemergence, scale 0 to 100
[15] = 8 g ai/ha, postemergence, 0-100 scale
[16] = Alopecurus myosuroides, post-emergence, Postemergence, scale 0 to 100, 0 no effect, 100 complete control, read-out: Plant response rating, Blackgrass
[17] = 31 g ai/ha, scale 0 to 100, 0 no effect, 100 complete control
[18] = 62 g ai/ha, scale 0 to 100, 0 no effect, 100 complete control

`CCc1c(C)c(-c2ccc(Cl)cc2)nn1-c1c(O)cnn(C)c1=O` [Compound 26, 4-[3-(4-chlorophenyl)-5-ethyl-4-methyl-1H-pyrazol-1-yl]-5-hydroxy-2-methyl-3(2H)-pyridazinone] was tested, and the “Bermudagrass plant response rating” value [1] was 0, the “Corn plant response rating” value (corn (Zea mays); postemergence, 0-100 scale) was 0 and the “Corn plant response rating” value (corn (Zea mays); Preemergence, scale 0 to 100) was 15. It also gave a Corn plant response rating (crop injury, 0 = no effect, 100 = complete kill) at 16 g/ha (corn (Zea mays); [10]) of 0%, a Corn plant response rating (crop injury, 0 = no effect, 100 = complete kill) at 31 g/ha (corn (Zea mays); [11]) of 100% and a Corn plant response rating (crop injury, 0 = no effect, 100 = complete kill) at 62 g/ha (corn (Zea mays); [11]) of 100%. For the same compound, the Corn plant response rating (crop injury, 0 = no effect, 100 = complete kill) at 16 g/ha (corn (Zea mays); [12]) was 30%, the Corn plant response rating (crop injury, 0 = no effect, 100 = complete kill) at 31 g/ha (corn (Zea mays); [13]) was 70% and the Corn plant response rating (crop injury, 0 = no effect, 100 = complete kill) at 62 g/ha (corn (Zea mays); [14]) was 98%. For the same compound, the “Morningglory plant response rating” value ([2]; postemergence, 0-100 scale) was 0, the pest or weed control at 16 g/ha [2, 10] was 0% and the pest or weed control at 31 g/ha [2, 11] was 0%. For the same compound, the pest or weed control at 62 g/ha [2, 11] was 0%, the pest or weed control at 16 g/ha [2, 12] was 0% and the pest or weed control at 31 g/ha [2, 13] was 0%. For the same compound, the pest or weed control at 62 g/ha [2, 14] was 0%, the “Morningglory plant response rating” value ([2]; Preemergence, scale 0 to 100) was 0 and the “Nightshade, E. B. plant response rating” value ([3]; 8 g ai/ha, scale 0 to 100) was 0. For the same compound, the pest or weed control at 16 g/ha ([3]; Solanum, pre-emergence, 16 g ai/ha, scale 0 to 100 (0 no effect, 100 complete control), read-out: Plant response rating, Nightshade, E. B.) was 0%, the pest or weed control at 31 g/ha ([3]; Solanum, pre-emergence, 31 g ai/ha, 0 to 100 scale, 0 no effect, 100 complete control, read-out: Plant response rating, Nightshade, E. B.) was 0% and the pest or weed control at 62 g/ha ([3]; Solanum, pre-emergence, 62 g ai/ha, scale 0 to 100, read-out: Plant response rating, Nightshade, E. B.) was 0%. The “Blackgrass plant response rating” value [4, 15] was 0, the pest or weed control at 16 g/ha ([4]; Alopecurus myosuroides, post-emergence, Postemergence, 16 g ai/ha, scale 0 to 100, read-out: Plant response rating, Blackgrass) was 50% and the pest or weed control at 31 g/ha [4, 16] was 80%. The pest or weed control at 62 g/ha [4, 16] was 80%, the pest or weed control at 31 g/ha ([4]; Alopecurus myosuroides, pre-emergence, Preemergence, 0 to 100 scale, 0 no effect, 100 complete control, read-out: Plant response rating, Blackgrass) was 85% and the pest or weed control at 62 g/ha ([4]; Alopecurus myosuroides, pre-emergence, Preemergence, scale 0 to 100, read-out: Plant response rating, Blackgrass) was 100%. The pest or weed control at 62 g/ha ([5]; Flood (flooded paddy test), 62 g ai/ha, scale 0 to 100, 0 no effect, 100 complete control) was 0%, the pest or weed control at 125 g/ha ([5]; Flood (flooded paddy test), 125 g ai/ha, scale 0 to 100, 0 no effect, 100 complete control) was 0% and the pest or weed control at 250 g/ha ([5]; Flood (flooded paddy test), 250 g ai/ha, scale 0 to 100, 0 no effect, 100 complete control) was 20%. The pest or weed control at 31 g/ha ([5]; Flood, 31 g ai/ha, scale 0 to 100) was 0%, the “Chickweed plant response rating” value [6, 15] was 0 and the “Plant response rating, Chickweed” value ([6]; 16 g ai/ha, scale 0 to 100) was 0. The “Plant response rating, Chickweed” value [6, 17] was 0, the “Plant response rating, Chickweed” value [6, 18] was 0 and the “Barley plant response rating” value [7, 15] was 0. The “Plant response rating, Barley” value ([7]; 16 g ai/ha) was 0, the “Plant response rating, Barley” value ([7]; 31 g ai/ha) was 0 and the “Plant response rating, Barley” value ([7]; 62 g ai/ha) was 0. For the same compound, the “Canarygrass plant response rating” value [8, 15] was 10, the “Plant response rating, Canarygrass” value ([8]; 16 g ai/ha, scale 0 to 100) was 10 and the “Plant response rating, Canarygrass” value [8, 17] was 60. The “Windgrass plant response rating” value [9, 15] was 50, the “Plant response rating, Windgrass” value ([9]; 16 g ai/ha, scale 0 to 100) was 80 and the “Plant response rating, Windgrass” value [9, 18] was 95.
